In US12139520B2 (priority 2020, dated 2024):
Numbered stars: 1 amine (or outer) side, 2 acyl side, 3 side chain; on linkers, the order of the positions; unused ones are H or OH. Bridge positions count the residues as written; N and C are the ends. Square brackets hold non-standard residues; d marks the D form. Side chains are listed from the residue outwards. Peptide text beside a SMILES is read from it. * marks the point of attachment. C20 diacid = O=C(O)CCCCCCCCCCCCCCCCCCC(=O)*; γGlu = O=C(O)[C@H](CCC(=O)[*:2])N[*:1]; Hyp = O=C(O)[C@@H]1C[C@@H](O)CN1; AEEA = NCCOCCOCC(=O)O

Legend:
hAMY3 receptor = biological target: T1, hAMY3 receptor (Homo sapiens, UniProt O60896+P30988); assay: cAMP assay for in vitro receptor activation, hAMY3-R; type: cell-based; settings: cAMP assay, hAMY3 receptor; read-out: hAMY3R EC50
T1 sequence (P30988 25-474): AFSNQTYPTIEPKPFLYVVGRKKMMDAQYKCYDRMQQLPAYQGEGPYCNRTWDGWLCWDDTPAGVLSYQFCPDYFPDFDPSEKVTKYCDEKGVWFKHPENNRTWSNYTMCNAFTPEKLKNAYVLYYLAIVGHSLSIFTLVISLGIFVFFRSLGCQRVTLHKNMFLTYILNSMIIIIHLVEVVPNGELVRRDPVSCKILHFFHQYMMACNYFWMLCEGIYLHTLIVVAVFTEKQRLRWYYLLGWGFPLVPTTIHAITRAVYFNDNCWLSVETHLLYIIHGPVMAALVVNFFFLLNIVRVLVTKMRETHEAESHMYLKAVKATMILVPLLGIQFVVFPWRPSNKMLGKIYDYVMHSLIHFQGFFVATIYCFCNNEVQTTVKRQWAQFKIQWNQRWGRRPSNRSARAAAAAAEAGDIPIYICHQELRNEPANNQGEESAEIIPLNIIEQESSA
T1 sequence (O60896 24-148 partner): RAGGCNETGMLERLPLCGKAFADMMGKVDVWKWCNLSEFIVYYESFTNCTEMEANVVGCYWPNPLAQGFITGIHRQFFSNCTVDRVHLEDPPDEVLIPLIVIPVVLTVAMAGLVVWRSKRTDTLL
How it was run: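 Monoclonal cell line stably overexpressing human AMY3 receptor, 2000 cells/well in DPBS with 0.05% casein and 0.5 mM IBMX. Stimulated 30 min at room temperature with graded compound doses, human amylin as positive control. cAMP accumulation read by TR-FRET after one hour.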

hAM1 receptor = hAM1 receptor (Homo sapiens, UniProt O60895+Q16602); assay: cAMP assay for in vitro receptor activation, hAM1-R; type: cell-based; settings: cAMP assay, hAM1 receptor; read-out: hAM1R EC50
Method: General Protocols for cAMP Assays for Measuring In Vitro Receptor Activation
Cells stably overexpressing the hAM1 receptor were obtained from Ogeda (now Astellas Pharma), sub-cloned and a monoclonal cell-line with an appropriate assay-window was expanded, aliquoted and frozen. An aliquot was thawed and plated in DPBS with 0.05% casein and 0.5 mM IBMX as 8000 cells/well in a 384-well format.

hAM1 receptor, sequence (Q16602 23-461): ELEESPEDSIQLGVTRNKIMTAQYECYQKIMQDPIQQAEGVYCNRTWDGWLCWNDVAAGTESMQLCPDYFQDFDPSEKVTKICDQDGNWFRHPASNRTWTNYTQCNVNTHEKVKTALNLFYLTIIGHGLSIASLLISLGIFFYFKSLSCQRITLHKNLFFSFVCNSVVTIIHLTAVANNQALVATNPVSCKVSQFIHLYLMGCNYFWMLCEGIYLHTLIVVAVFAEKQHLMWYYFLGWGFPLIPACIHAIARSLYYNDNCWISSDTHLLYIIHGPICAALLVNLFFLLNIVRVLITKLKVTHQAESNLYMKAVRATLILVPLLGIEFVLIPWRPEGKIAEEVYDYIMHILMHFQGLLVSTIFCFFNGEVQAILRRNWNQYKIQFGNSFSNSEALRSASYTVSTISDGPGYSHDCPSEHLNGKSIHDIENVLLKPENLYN
hAM1 receptor, sequence (O60895 43-175 partner): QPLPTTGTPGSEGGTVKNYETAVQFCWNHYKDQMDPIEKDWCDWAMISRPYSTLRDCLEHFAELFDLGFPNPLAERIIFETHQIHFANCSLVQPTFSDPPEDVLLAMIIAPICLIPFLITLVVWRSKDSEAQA

EC50 (hAMY3 receptor) [nM]	EC50 (hAM1 receptor) [nM]	Compound
0.007	> 5000	CC[C@H](C)[C@H](NC(=O)[C@H](CCC(N)=O)NC(=O)[C@H](CCC(=O)O)NC(=O)[C@H](C)NC(=O)[C@H](CC(C)C)NC(=O)[C@H](CCCNC(=N)N)NC(=O)[C@H](CCC(N)=O)NC(=O)[C@@H](NC(=O)[C@@H](NC(=O)[C@@H]1CSSC[C@H](NC(=O)[C@@H](N)CCCCN)C(=O)N[C@@H](CC(N)=O)C(=O)N[C@@H]([C@@H](C)O)C(=O)N[C@@H](C)C(=O)N[C@@H]([C@@H](C)O)C(=O)N1)[C@@H](C)O)C(C)C)C(=O)N[C@@H](Cc1ccc(O)cc1)C(=O)N[C@@H](CCC(N)=O)C(=O)N[C@@H](Cc1ccccc1)C(=O)N[C@H](C(=O)N[C@@H](CC(=O)O)C(=O)N[C@@H](CCCCN)C(=O)N[C@@H](CC(=O)O)C(=O)N[C@@H](CCCCN)C(=O)N[C@@H](CC(=O)O)C(=O)N[C@@H](CC(N)=O)C(=O)N[C@@H](CCCCNC(=O)COCCOCCNC(=O)COCCOCCNC(=O)CC[C@H](NC(=O)CCCCCCCCCCCCCCCCCCC(=O)O)C(=O)O)C(=O)N[C@@H](C)C(=O)N1CCC[C@H]1C(=O)N1CCC[C@H]1C(=O)N[C@H](C(=O)N[C@@H](CC(N)=O)C(=O)N[C@H](C(=O)NCC(=O)N[C@@H](CO)C(=O)N[C@@H](CC(N)=O)C(=O)NCC(=O)N1C[C@H](O)C[C@H]1C(N)=O)C(C)C)[C@@H](C)O)[C@@H](C)O [compound 12] (H-KCNTATCTVQRLAEQIYQFTDKDKDNK([AEEA-AEEA-γGlu-C20 diacid])APPTNVGSNG[Hyp]-NH2; disulfide 2-7; N-terminus assumed)
0.007	> 5000	CC[C@H](C)[C@H](NC(=O)[C@H](CCC(N)=O)NC(=O)[C@H](CC(=O)O)NC(=O)[C@H](C)NC(=O)[C@H](CC(C)C)NC(=O)[C@H](CCCNC(=N)N)NC(=O)[C@H](C)NC(=O)[C@@H](NC(=O)[C@@H](NC(=O)[C@@H]1CSSC[C@H](NC(=O)[C@@H](N)CCCCN)C(=O)N[C@@H](CC(N)=O)C(=O)N[C@@H]([C@@H](C)O)C(=O)N[C@@H](CO)C(=O)N[C@@H]([C@@H](C)O)C(=O)N1)[C@@H](C)O)C(C)C)C(=O)N[C@H](C(=O)N[C@@H](CCC(N)=O)C(=O)N[C@@H](Cc1ccccc1)C(=O)N[C@@H](CO)C(=O)N[C@@H](CC(=O)O)C(=O)N[C@@H](CCCCN)C(=O)N[C@@H](CC(=O)O)C(=O)N[C@@H](CCCCN)C(=O)N[C@@H](C)C(=O)N[C@@H](CC(N)=O)C(=O)N[C@H](C(=O)N[C@@H](CO)C(=O)N1CCC[C@H]1C(=O)N1CCC[C@H]1C(=O)N[C@H](C(=O)N[C@@H](CCC(=O)O)C(=O)N[C@H](C(=O)NCC(=O)N1CCC[C@H]1C(=O)N[C@@H](CC(N)=O)C(=O)N[C@@H](CO)C(=O)N1C[C@H](O)C[C@H]1C(N)=O)C(C)C)[C@@H](C)O)C(C)C)[C@@H](C)O [compound 15] (H-KCNTSTCTVARLADQITQFSDKDKANVSPPTEVGPNS[Hyp]-NH2; disulfide 2-7; N-terminus assumed)

The next lines start with the compound.

Compound	EC50 (hAMY3 receptor) [nM]	EC50 (hAM1 receptor) [nM]
CC[C@H](C)[C@H](NC(=O)[C@H](CCC(N)=O)NC(=O)[C@H](CC(=O)O)NC(=O)[C@H](C)NC(=O)[C@H](CC(C)C)NC(=O)[C@H](CCCNC(=N)N)NC(=O)[C@H](CCC(N)=O)NC(=O)[C@@H](NC(=O)[C@@H](NC(=O)[C@@H]1CSSC[C@H](NC(=O)[C@H](CCCCN)NC(=O)CC[C@H](NC(=O)CCCCCCCCCCCCCCCCCCC(=O)O)C(=O)O)C(=O)N[C@@H](CC(N)=O)C(=O)N[C@@H]([C@@H](C)O)C(=O)N[C@@H](C)C(=O)N[C@@H]([C@@H](C)O)C(=O)N1)[C@@H](C)O)C(C)C)C(=O)N[C@@H](Cc1ccc(O)cc1)C(=O)N[C@@H](CCC(N)=O)C(=O)N[C@@H](Cc1ccccc1)C(=O)N[C@H](C(=O)N[C@@H](CC(=O)O)C(=O)N[C@@H](CCCCN)C(=O)N[C@@H](CC(=O)O)C(=O)N[C@@H](CCCCN)C(=O)N[C@@H](CC(=O)O)C(=O)N[C@@H](CC(N)=O)C(=O)N[C@H](C(=O)N[C@@H](C)C(=O)N1CCC[C@H]1C(=O)N1CCC[C@H]1C(=O)N[C@H](C(=O)N[C@@H](CC(N)=O)C(=O)N[C@H](C(=O)NCC(=O)N[C@@H](CO)C(=O)N[C@@H](CC(N)=O)C(=O)NCC(=O)N1C[C@H](O)C[C@H]1C(N)=O)C(C)C)[C@@H](C)O)C(C)C)[C@@H](C)O [compound 5] ({C20 diacid-γGlu}-KCNTATCTVQRLADQIYQFTDKDKDNVAPPTNVGSNG[Hyp]-NH2; disulfide 2-7)	0.006	> 5000
CC[C@H](C)[C@H](NC(=O)[C@H](CCC(N)=O)NC(=O)[C@H](CC(=O)O)NC(=O)[C@H](C)NC(=O)[C@H](CC(C)C)NC(=O)[C@H](CCCNC(=N)N)NC(=O)[C@H](C)NC(=O)[C@@H](NC(=O)[C@@H](NC(=O)[C@@H]1CSSC[C@H](NC(=O)[C@@H](N)CCCCN)C(=O)N[C@@H](CC(N)=O)C(=O)N[C@@H]([C@@H](C)O)C(=O)N[C@@H](CO)C(=O)N[C@@H]([C@@H](C)O)C(=O)N1)[C@@H](C)O)C(C)C)C(=O)N[C@H](C(=O)N[C@@H](CCC(N)=O)C(=O)N[C@@H](Cc1ccccc1)C(=O)N[C@@H](CO)C(=O)N[C@@H](CC(N)=O)C(=O)N[C@@H](CCCCN)C(=O)N[C@@H](CC(=O)O)C(=O)N[C@@H](CCCCN)C(=O)N[C@@H](C)C(=O)N[C@@H](CCC(N)=O)C(=O)N[C@H](C(=O)N[C@@H](CO)C(=O)N1CCC[C@H]1C(=O)N1CCC[C@H]1C(=O)N[C@H](C(=O)N[C@@H](CCC(=O)O)C(=O)N[C@H](C(=O)NCC(=O)N1CCC[C@H]1C(=O)N[C@@H](CC(N)=O)C(=O)N[C@@H](CO)C(=O)N1C[C@H](O)C[C@H]1C(N)=O)C(C)C)[C@@H](C)O)C(C)C)[C@@H](C)O [compound 8] (H-KCNTSTCTVARLADQITQFSNKDKAQVSPPTEVGPNS[Hyp]-NH2; disulfide 2-7; N-terminus assumed)	0.006	> 5000
CC[C@H](C)[C@H](NC(=O)[C@H](CCC(N)=O)NC(=O)[C@H](CC(=O)O)NC(=O)[C@H](C)NC(=O)[C@H](CC(C)C)NC(=O)[C@H](CCCNC(=N)N)NC(=O)[C@H](CC(N)=O)NC(=O)[C@@H](NC(=O)[C@@H](NC(=O)[C@@H]1CSSC[C@H](NC(=O)[C@@H](N)CCCNC(=N)N)C(=O)N[C@@H](CC(N)=O)C(=O)N[C@@H](C)C(=O)N[C@@H](CO)C(=O)N[C@@H]([C@@H](C)O)C(=O)N1)[C@@H](C)O)C(C)C)C(=O)N[C@H](C(=O)N[C@@H](CCC(N)=O)C(=O)N[C@@H](Cc1ccccc1)C(=O)N[C@@H](CO)C(=O)N[C@@H](CC(N)=O)C(=O)N[C@@H](CCCCN)C(=O)N[C@@H](CC(=O)O)C(=O)N[C@@H](CCCCN)C(=O)N[C@@H](C)C(=O)N[C@@H](CCC(N)=O)C(=O)N[C@H](C(=O)N[C@@H](CO)C(=O)N1CCC[C@H]1C(=O)N1CCC[C@H]1C(=O)N[C@H](C(=O)N[C@@H](CCC(=O)O)C(=O)N[C@H](C(=O)NCC(=O)N1CCC[C@H]1C(=O)N[C@@H](CC(N)=O)C(=O)N[C@@H](CO)C(=O)N1C[C@H](O)C[C@H]1C(N)=O)C(C)C)[C@@H](C)O)C(C)C)[C@@H](C)O [compound 9] (H-RCNASTCTVNRLADQITQFSNKDKAQVSPPTEVGPNS[Hyp]-NH2; disulfide 2-7; N-terminus assumed)	0.006	> 5000
CC[C@H](C)[C@H](NC(=O)[C@H](CCC(N)=O)NC(=O)[C@H](Cc1c[nH]cn1)NC(=O)[C@H](C)NC(=O)[C@H](CC(C)C)NC(=O)[C@H](CCCNC(=N)N)NC(=O)[C@H](CCC(N)=O)NC(=O)[C@@H](NC(=O)[C@@H](NC(=O)[C@@H]1CSSC[C@H](NC(=O)[C@H](CCCCN)NC(=O)CC[C@H](NC(=O)CCCCCCCCCCCCCCCCCCC(=O)O)C(=O)O)C(=O)N[C@@H](CC(N)=O)C(=O)N[C@@H]([C@@H](C)O)C(=O)N[C@@H](C)C(=O)N[C@@H]([C@@H](C)O)C(=O)N1)[C@@H](C)O)C(C)C)C(=O)N[C@@H](CC(N)=O)C(=O)N[C@@H](CCC(N)=O)C(=O)N[C@@H](Cc1ccccc1)C(=O)N[C@H](C(=O)N[C@@H](CC(=O)O)C(=O)N[C@@H](CCCCN)C(=O)N[C@@H](CC(=O)O)C(=O)N[C@@H](CCCCN)C(=O)N[C@@H](CC(=O)O)C(=O)N[C@@H](CC(N)=O)C(=O)N[C@H](C(=O)N[C@@H](C)C(=O)N1CCC[C@H]1C(=O)N1CCC[C@H]1C(=O)N[C@H](C(=O)N[C@@H](CC(N)=O)C(=O)N[C@H](C(=O)NCC(=O)N[C@@H](CO)C(=O)N[C@@H](CC(N)=O)C(=O)NCC(=O)N1C[C@H](O)C[C@H]1C(N)=O)C(C)C)[C@@H](C)O)C(C)C)[C@@H](C)O [compound 11] ({C20 diacid-γGlu}-KCNTATCTVQRLAHQINQFTDKDKDNVAPPTNVGSNG[Hyp]-NH2; disulfide 2-7)	0.007	> 5000
